# Experimental data: patent US9845310B2 (priority 2015, dated 2017)
# Where two headings read alike, the source gives them in different places.
# Target: APJ (Homo sapiens (Human), UniProt P35414)
# Test: [35S]GTPγS binding assay on membranes from CHO cells stably expressing human APJ receptor
# Format: biochemical
# [1] = read-out: Activity hAPJ SPA EC50 IP
# Protocol: A GTPγS binding assay was performed on membranes prepared from CHO cells stably expressing human APJ receptor. The optimum experimental conditions for the concentrations of GDP, MgCl2, and NaCl in the assay buffer were initially determined. The assay was performed in assay buffer [20 mM HEPES, pH 7.5, 5 mM MgCl2, and 0.1% (w/v) BSA with 200 mM NaCl, 3 M GDP] and membranes expressing human APJ receptor/well along with WGA PS beads. The reaction was initiated by addition of 0.2 nM [^35S]GTPγS (Perkin Elmer Life and Analytical Sciences, Waltham USA) in the absence or presence of various ligands and incubated at RT for 90 min. Nonspecific binding was determined in the presence of 100 M GTPγS and was always less than 0.2% of total binding.
# Sequence of APJ (P35414 whole entry): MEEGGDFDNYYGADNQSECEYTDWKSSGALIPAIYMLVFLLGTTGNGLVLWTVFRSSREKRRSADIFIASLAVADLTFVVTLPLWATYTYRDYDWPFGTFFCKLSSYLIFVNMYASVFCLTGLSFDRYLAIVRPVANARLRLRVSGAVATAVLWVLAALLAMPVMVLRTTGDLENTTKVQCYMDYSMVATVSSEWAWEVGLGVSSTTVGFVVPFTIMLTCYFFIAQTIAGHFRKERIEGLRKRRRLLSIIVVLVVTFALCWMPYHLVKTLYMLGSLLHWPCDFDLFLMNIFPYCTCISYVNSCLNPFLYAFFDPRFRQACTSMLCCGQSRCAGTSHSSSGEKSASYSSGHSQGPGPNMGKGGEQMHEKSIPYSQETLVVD
smiles,measurement,setting,value
"COc1cccc(OC)c1-n1c(NS(=O)(=O)[C@@H](C)Cc2ncc(F)cn2)nnc1-c1cncc(Cl)c1 (mixture of isomers) [Example 219.0, (2S)-N-(5-(5-chloro-3-pyridinyl)-4-(2,6-dimethoxyphenyl)-4H-1,2,4-triazol-3-yl)-1-(5-fluoro-2-pyrimidinyl)-2-propanesulfonamide and (2R)-N-(5-(5-chloro-3-pyridinyl)-4-(2,6-dimethoxyphenyl)-4H-1,2,4-triazol-3-yl)-1-(5-fluoro-2-pyrimidinyl)-2-propanesulfonamide]",EC50,[1],0.0085 µM
"CCNC(=O)c1cccc(-c2nnc(NS(=O)(=O)[C@@H](C)Cc3ncc(F)cn3)n2-c2c(OC)cccc2OC)n1 (mixture of isomers) [Example 228.0, 6-(4-(2,6-dimethoxyphenyl)-5-((((1S)-2-(5-fluoro-2-pyrimidinyl)-1-methylethyl)sulfonyl)amino)-4H-1,2,4-triazol-3-yl)-N-ethyl-2-pyridinecarboxamide and 6-(4-(2,6-dimethoxyphenyl)-5-((((1R)-2-(5-fluoro-2-pyrimidinyl)-1-methylethyl)sulfonyl)amino)-4H-1,2,4-triazol-3-yl)-N-ethyl-2-pyridinecarboxamide]",EC50,[1],0.0053 µM
"COc1cccc(OC)c1-n1c(NS(=O)(=O)[C@@H](C)[C@H](O)c2ccc(C#N)cc2)nnc1-c1cncc(C)c1 (mixture of isomers) [Example 247.0, (1R,2S)-1-(4-cyanophenyl)-N-(4-(2,6-dimethoxyphenyl)-5-(5-methyl-3-pyridinyl)-4H-1,2,4-triazol-3-yl)-1-hydroxy-2-propanesulfonamide and (1S,2R)-1-(4-cyanophenyl)-N-(4-(2,6-dimethoxyphenyl)-5-(5-methyl-3-pyridinyl)-4H-1,2,4-triazol-3-yl)-1-hydroxy-2-propanesulfonamide]",EC50,[1],0.0038 µM
"COc1cccc(-c2nnc(NS(=O)(=O)[C@H](C)[C@@H](O)c3cn4ccccc4n3)n2-c2c(OC)cccc2OC)n1 (mixture of isomers) [Example 256.0, (1S,2R)-N-(4-(2,6-dimethoxyphenyl)-5-(6-methoxypyridin-2-yl)-4H-1,2,4-triazol-3-yl)-1-hydroxy-1-(imidazo[1,2-a]pyridin-2-yl)propane-2-sulfonamide and (1R,2S)-N-(4-(2,6-dimethoxyphenyl)-5-(6-methoxypyridin-2-yl)-4H-1,2,4-triazol-3-yl)-1-hydroxy-1-(imidazo[1,2-a]pyridin-2-yl)propane-2-sulfonamide]",EC50,[1],0.0004 µM
"COc1cccc(-c2nnc(NS(=O)(=O)C[C@@H](O)c3cn4ccccc4n3)n2-c2c(OC)cccc2OC)n1 (mixture of isomers) [Example 257.0, (S)-N-(4-(2,6-dimethoxyphenyl)-5-(6-methoxypyridin-2-yl)-4H-1,2,4-triazol-3-yl)-2-hydroxy-2-(imidazo[1,2-a]pyridin-2-yl)ethanesulfonamide and (R)-N-(4-(2,6-dimethoxyphenyl)-5-(6-methoxypyridin-2-yl)-4H-1,2,4-triazol-3-yl)-2-hydroxy-2-(imidazo[1,2-a]pyridin-2-yl)ethanesulfonamide]",EC50,[1],0.00073 µM
"COc1cccc(-c2nnc(NS(=O)(=O)[C@H](C)[C@@H](O)c3cn(C)cn3)n2-c2c(OC)cccc2OC)n1 (mixture of isomers) [Example 258.0, (1S,2R)-N-(4-(2,6-dimethoxyphenyl)-5-(6-methoxypyridin-2-yl)-4H-1,2,4-triazol-3-yl)-1-hydroxy-1-(1-methyl-1H-imidazol-4-yl)propane-2-sulfonamide and (1R,2S)-N-(4-(2,6-dimethoxyphenyl)-5-(6-methoxypyridin-2-yl)-4H-1,2,4-triazol-3-yl)-1-hydroxy-1-(1-methyl-1H-imidazol-4-yl)propane-2-sulfonamide]",EC50,[1],0.002 µM
"COc1cccc(-c2nnc(NS(=O)(=O)[C@H](C)[C@H](O)c3cn(C)cn3)n2-c2c(OC)cccc2OC)n1 (mixture of isomers) [Example 259.0, (1R,2R)-N-(4-(2,6-dimethoxyphenyl)-5-(6-methoxypyridin-2-yl)-4H-1,2,4-triazol-3-yl)-1-hydroxy-1-(1-methyl-1H-imidazol-4-yl)propane-2-sulfonamide and (1S,2S)-N-(4-(2,6-dimethoxyphenyl)-5-(6-methoxypyridin-2-yl)-4H-1,2,4-triazol-3-yl)-1-hydroxy-1-(1-methyl-1H-imidazol-4-yl)propane-2-sulfonamide]",EC50,[1],0.011 µM
"COc1cccc(-c2nnc(NS(=O)(=O)C[C@H](O)c3ccc(F)cc3S(C)(=O)=O)n2-c2c(OC)cccc2OC)n1 (mixture of isomers) [Example 267.0, (R)-N-(4-(2,6-dimethoxyphenyl)-5-(6-methoxypyridin-2-yl)-4H-1,2,4-triazol-3-yl)-2-(4-fluoro-2-(methylsulfonyl)phenyl)-2-hydroxyethanesulfonamide and (S)-N-(4-(2,6-dimethoxyphenyl)-5-(6-methoxypyridin-2-yl)-4H-1,2,4-triazol-3-yl)-2-(4-fluoro-2-(methylsulfonyl)phenyl)-2-hydroxyethanesulfonamide]",EC50,Activity hAPJ SPA EC50 IP (μM),0.00015 µM
COc1cccc(-c2nnc(NS(=O)(=O)[C@@H](C)[C@H](O)c3ccc(F)cc3)n2-c2c(OC)cccc2OC)n1 (mixture of isomers) [Example 283.0],EC50,Activity hAPJ SPA EC50 IP (μM),0.00096 µM
"COc1cccc(-c2nnc(NS(=O)(=O)C[C@H](O)c3ccc(F)cn3)n2-c2c(OC)cccc2OC)n1 (mixture of isomers) [Example 315.0, (2R)-N-(4-(2,6-dimethoxyphenyl)-5-(6-methoxy-2-pyridinyl)-4H-1,2,4-triazol-3-yl)-2-(5-fluoro-2-pyridinyl)-2-hydroxyethanesulfonamide and (2S)-N-(4-(2,6-dimethoxyphenyl)-5-(6-methoxy-2-pyridinyl)-4H-1,2,4-triazol-3-yl)-2-(5-fluoro-2-pyridinyl)-2-hydroxyethanesulfonamide]",EC50,Activity hAPJ SPA EC50 IP (μM),0.00032 µM
"COc1cccc(-c2nnc(NS(=O)(=O)C[C@H](OC)c3ccc(F)cn3)n2-c2c(OC)cccc2OC)n1 (mixture of isomers) [Example 328.0, (2R)-N-(4-(2,6-dimethoxyphenyl)-5-(6-methoxy-2-pyridinyl)-4H-1,2,4-triazol-3-yl)-2-(5-fluoro-2-pyridinyl)-2-methoxyethanesulfonamide and (2S)-N-(4-(2,6-dimethoxyphenyl)-5-(6-methoxy-2-pyridinyl)-4H-1,2,4-triazol-3-yl)-2-(5-fluoro-2-pyridinyl)-2-methoxyethanesulfonamide]",EC50,Activity hAPJ SPA EC50 IP (μM),0.00033 µM
"COc1cccc(-c2nnc(NS(=O)(=O)C[C@H](O)c3ccc(C#N)cn3)n2-c2c(OC)cccc2OC)n1 (mixture of isomers) [Example 331.0, (R)-2-(5-cyanopyridin-2-yl)-N-(4-(2,6-dimethoxyphenyl)-5-(6-methoxypyridin-2-yl)-4H-1,2,4-triazol-3-yl)-2-hydroxyethanesulfonamide and (S)-2-(5-cyanopyridin-2-yl)-N-(4-(2,6-dimethoxyphenyl)-5-(6-methoxypyridin-2-yl)-4H-1,2,4-triazol-3-yl)-2-hydroxyethanesulfonamide]",EC50,Activity hAPJ SPA EC50 IP (μM),0.00024 µM
COc1cccc(-c2nnc(NS(=O)(=O)[C@H](C)[C@@H](O)C3CC3)n2-c2c(OC)cccc2OC)n1 (mixture of isomers) [Example 438.0],EC50,Activity hAPJ SPA EC50 IP (μM),0.052 µM
"COc1cccc(OC)c1-n1c(NS(=O)(=O)C[C@H](O)c2ccc(Cl)cc2S(C)(=O)=O)nnc1-c1cncc(C)c1 (mixture of isomers) [Example 457.0, (2R)-2-(4-chloro-2-(methylsulfonyl)phenyl)-N-(4-(2,6-dimethoxyphenyl)-5-(5-methyl-3-pyridinyl)-4H-1,2,4-triazol-3-yl)-2-hydroxyethanesulfonamide and (2S)-2-(4-chloro-2-(methylsulfonyl)phenyl)-N-(4-(2,6-dimethoxyphenyl)-5-(5-methyl-3-pyridinyl)-4H-1,2,4-triazol-3-yl)-2-hydroxyethanesulfonamide]",EC50,Activity hAPJ SPA EC50 IP (μM),0.0003 µM
COc1cccc(-c2nnc(NS(=O)(=O)[C@@H](C)[C@H](OC)c3ccc(C#N)cc3C#N)n2-c2c(OC)cccc2OC)n1 (mixture of isomers) [Example 473.0],EC50,[1],0.00023 µM
"COc1cccc(-c2nnc(NS(=O)(=O)C[C@H](O)c3ccc(C#N)cc3S(C)(=O)=O)n2-c2c(OC)cccc2OC)n1 (mixture of isomers) [Example 481.0, (2S)-2-(4-cyano-2-(methylsulfonyl)phenyl)-N-(4-(2,6-dimethoxyphenyl)-5-(6-methoxy-2-pyridinyl)-4H-1,2,4-triazol-3-yl)-2-hydroxyethanesulfonamide and (2R)-2-(4-cyano-2-(methylsulfonyl)phenyl)-N-(4-(2,6-dimethoxyphenyl)-5-(6-methoxy-2-pyridinyl)-4H-1,2,4-triazol-3-yl)-2-hydroxyethanesulfonamide]",EC50,Activity hAPJ SPA EC50 IP (μM),0.00024 µM
"COc1cccc(-c2nnc(NS(=O)(=O)C[C@H](OC)c3ccc(C#N)cc3S(C)(=O)=O)n2-c2c(OC)cccc2OC)n1 (mixture of isomers) [Example 484.0, (2R)-2-(4-cyano-2-(methylsulfonyl)phenyl)-N-(4-(2,6-dimethoxyphenyl)-5-(6-methoxy-2-pyridinyl)-4H-1,2,4-triazol-3-yl)-2-methoxyethanesulfonamide and (2S)-2-(4-cyano-2-(methylsulfonyl)phenyl)-N-(4-(2,6-dimethoxyphenyl)-5-(6-methoxy-2-pyridinyl)-4H-1,2,4-triazol-3-yl)-2-methoxyethanesulfonamide]",EC50,Activity hAPJ SPA EC50 IP (μM),0.00026 µM
"COc1cccc(OC)c1-n1c(NS(=O)(=O)[C@@H](C)[C@H](OC)c2ccc(Cl)cn2)nnc1-c1cccnc1 (mixture of isomers) [Example 529.0, (1S,2R)-1-(5-chloro-2-pyridinyl)-N-(4-(2,6-dimethoxyphenyl)-5-(3-pyridinyl)-4H-1,2,4-triazol-3-yl)-1-methoxy-2-propanesulfonamide and (1R,2S)-1-(5-chloro-2-pyridinyl)-N-(4-(2,6-dimethoxyphenyl)-5-(3-pyridinyl)-4H-1,2,4-triazol-3-yl)-1-methoxy-2-propanesulfonamide]",EC50,Activity hAPJ SPA EC50 IP (μM),0.00048 µM
